Experimental data reported in paper PMC11631053, “A receptor-based assay to study the sweet and bitter tastes of sweeteners and binary sweet blends: the SWEET project” (Chemical Senses, 2024).

How the values were obtained:
TAS2R38-PAV = TAS2R38-PAV (Homo sapiens, UniProt P59533, A49P/I296V); test: Calcium mobilization assay, HEK293T-Gα16gust44 cells expressing TAS2R38-PAV
Description: (§1) Different concentration ranges were tested depending on the injected sweet compound. […] All of the concentration-receptor combinations were measured in triplicate, and each experiment was repeated at least 3 times. The Ca^2+ change was expressed as a fractional change in fluorescent light intensity: ΔF/F = (F − F0)/F0, where F was the fluorescent light intensity at each point, and F0 was the value of fluorescent light emitted prior to stimulus application. To calculate dose–response relationships, the changes in fluorescence upon stimulus application were averaged, mock-subtracted and baseline-corrected. The resulting obtained dose–response data were adjusted by using a 4-parameter logistic equation. The half-maximal effective concentration (EC50) was calculated by using SigmaPlot software (Systat Software, San Jose, CA, USA) as described in supplemental Supplementary Figs. S1, S2, and S3.

TAS2R13 = molecular target: T1, TAS2R13 (Homo sapiens, UniProt Q9NYV9); test: Calcium mobilization assay, HEK293T-Gα16gust44 cells expressing TAS2R13; details: maximal concentration tested: sucralose 100 mM, neotame 30 µM, Ace-K 300 mM, RebA 4 mM, RebM 4 mM, mogroside V 5 mM, erythritol 200 mM, D-allulose 500 mM, thaumatin 100 mM
T1 sequence (Q9NYV9 1-303): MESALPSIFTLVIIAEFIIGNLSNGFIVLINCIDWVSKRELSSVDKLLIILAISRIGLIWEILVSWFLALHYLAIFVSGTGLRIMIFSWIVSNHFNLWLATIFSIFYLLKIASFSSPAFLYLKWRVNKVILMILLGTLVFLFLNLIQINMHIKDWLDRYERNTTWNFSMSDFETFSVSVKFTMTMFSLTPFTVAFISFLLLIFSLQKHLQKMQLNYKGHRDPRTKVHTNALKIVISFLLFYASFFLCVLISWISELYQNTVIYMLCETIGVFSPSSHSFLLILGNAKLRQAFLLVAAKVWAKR
Description: Different concentration ranges were tested depending on the injected sweet compound. […] All of the concentration-receptor combinations were measured in triplicate, and each experiment was repeated at least 3 times. The Ca^2+ change was expressed as a fractional change in fluorescent light intensity: ΔF/F = (F − F0)/F0, where F was the fluorescent light intensity at each point, and F0 was the value of fluorescent light emitted prior to stimulus application. To calculate dose–response relationships, the changes in fluorescence upon stimulus application were averaged, mock-subtracted and baseline-corrected. The resulting obtained dose–response data were adjusted by using a 4-parameter logistic equation.

TAS2R9 = molecular target: T2, TAS2R9 (Homo sapiens, UniProt Q9NYW1); test: Calcium mobilization assay, HEK293T-Gα16gust44 cells expressing TAS2R9; details: maximal concentration tested: sucralose 100 mM, neotame 30 µM, Ace-K 300 mM, RebA 4 mM, RebM 4 mM, mogroside V 5 mM, erythritol 200 mM, D-allulose 500 mM, thaumatin 100 mM
T2 sequence (Q9NYW1 1-312): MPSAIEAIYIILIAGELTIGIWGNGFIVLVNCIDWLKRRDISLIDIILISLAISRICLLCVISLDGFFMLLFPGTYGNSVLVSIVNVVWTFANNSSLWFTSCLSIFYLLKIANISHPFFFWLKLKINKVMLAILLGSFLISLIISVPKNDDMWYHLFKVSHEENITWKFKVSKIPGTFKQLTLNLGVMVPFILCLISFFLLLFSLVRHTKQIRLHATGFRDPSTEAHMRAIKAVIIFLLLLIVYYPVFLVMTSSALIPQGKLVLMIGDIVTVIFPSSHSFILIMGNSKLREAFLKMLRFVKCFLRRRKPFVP
Description: as §1

25 human TAS2Rs = test: Screen of the 25 human TAS2Rs, calcium mobilization in HEK293T-Gα16gust44 cells; type: cell-based; details: for number of TAS2Rs activated: of the 25 human TAS2Rs; for activation of any TAS2Rs: at the maximal tested concentration (Table 4)
Description: The activation of the 25 human TAS2Rs by the 9 selected sweeteners (excluding sucrose) was examined by using HEK293T-Gα16gust44 cells. Cellular responses were measured after cell stimulation with various concentrations of the sweeteners.

TAS2R38-AVI = TAS2R38-AVI (Homo sapiens, UniProt P59533, A262V); test: Calcium mobilization assay, HEK293T-Gα16gust44 cells expressing TAS2R38-AVI
Sequence of TAS2R38-AVI (P59533 whole entry A262V): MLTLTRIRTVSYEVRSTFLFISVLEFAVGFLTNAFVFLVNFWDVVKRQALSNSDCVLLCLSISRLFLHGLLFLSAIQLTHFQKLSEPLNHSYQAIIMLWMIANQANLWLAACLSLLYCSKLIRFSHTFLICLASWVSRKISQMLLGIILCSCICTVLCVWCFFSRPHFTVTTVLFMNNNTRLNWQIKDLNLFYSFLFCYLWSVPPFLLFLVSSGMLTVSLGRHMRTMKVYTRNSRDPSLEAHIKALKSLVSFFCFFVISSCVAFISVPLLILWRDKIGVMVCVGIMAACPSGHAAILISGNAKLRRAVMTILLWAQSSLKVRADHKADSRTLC
Description: as §1

Sequence of TAS2R38-PAV (P59533 whole entry A49P/I296V): as the sequence (P59533 whole entry A262V) above, with A49P, V262A, I296V counted along it

Row | Molecule | EC50 (TAS2R38-PAV; read-out: TAS2R38-PAV EC50, text prints TAS2R38) [µM] | Response of TAS2R13 (TAS2R13) | Response of TAS2R9 (TAS2R9) | number of TAS2Rs activated (25 human TAS2Rs) | activation of any TAS2Rs (25 human TAS2Rs) | concentrations at which TAS2R38-PAV was activated (TAS2R38-PAV) [mM] | concentrations at which TAS2R38-AVI was activated (TAS2R38-AVI) [mM]
1 | C[C@H](CC[C@@H](O[C@@H]1O[C@H](CO[C@@H]2O[C@H](CO)[C@@H](O)[C@H](O)[C@H]2O)[C@@H](O)[C@H](O)[C@H]1O[C@@H]1O[C@H](CO)[C@@H](O)[C@H](O)[C@H]1O)C(C)(C)O)[C@H]1CC[C@@]2(C)[C@@H]3CC=C4[C@@H](CC[C@H](O[C@@H]5O[C@H](CO[C@@H]6O[C@H](CO)[C@@H](O)[C@H](O)[C@H]6O)[C@@H](O)[C@H](O)[C@H]5O)C4(C)C)[C@]3(C)[C@H](O)C[C@]12C [Mogroside V, mogroside V] | 253 ± 139 | − | − | 2 |  |  | 
2 | CC1=CC(=O)NS(=O)(=O)O1 [Ace-K, acesulfame-K] |  | − | − |  |  |  | 
3 | COC(=O)[C@H](Cc1ccccc1)NC(=O)[C@H](CC(=O)O)NCCC(C)(C)C [Neotame] |  | − | − |  | Neither neotame, RebM, erythritol, or thaumatin activated any TAS2Rs |  | 
4 | O=C(CO)[C@H](O)[C@H](O)[C@H](O)CO [D-allulose] |  | − | − | 7 |  | > 300 | > 300
5 | OC[C@H]1O[C@H](O[C@]2(CCl)O[C@H](CCl)[C@@H](O)[C@@H]2O)[C@H](O)[C@@H](O)[C@H]1Cl [Sucralose, sucralose] |  | − | − | 3 |  |  | 
6 | thaumatin |  | − | − |  | Neither neotame, RebM, erythritol, or thaumatin activated any TAS2Rs |  | 
7 | OC[C@@H](O)[C@@H](O)CO [Erythritol, erythritol] |  | − | − |  | Neither neotame, RebM, erythritol, or thaumatin activated any TAS2Rs |  | 
8 | C=C1C[C@@]23CC[C@H]4[C@@](C)(CCC[C@@]4(C)C(=O)O[C@@H]4O[C@H](CO)[C@@H](O)[C@H](O[C@@H]5O[C@H](CO)[C@@H](O)[C@H](O)[C@H]5O)[C@H]4O[C@@H]4O[C@H](CO)[C@@H](O)[C@H](O)[C@H]4O)[C@@H]2CC[C@]1(O[C@@H]1O[C@H](CO)[C@@H](O)[C@H](O[C@@H]2O[C@H](CO)[C@@H](O)[C@H](O)[C@H]2O)[C@H]1O[C@@H]1O[C@H](CO)[C@@H](O)[C@H](O)[C@H]1O)C3 [RebM, Rebaudioside M] |  | − | − |  | Neither neotame, RebM, erythritol, or thaumatin activated any TAS2Rs |  | 
